Data set [1] concerns HL-60 (acute promyelocytic leukemia). It counts as cell-based, human. To be noted: MTT after 48 h, RPMI-1640 with 10% FBS, mean ± SD of at least three independent experiments. The protocol:
(§1) Cytotoxic activities of PM III, its isoforms, and tachyplesins against seven human cell lines were evaluated. Four cancer (HL-60 acute promyelocytic leukemia, HeLa cervix adenocarcinoma, SK-BR-3 breast adenocarcinoma, A549 lung carcinoma), one transformed (HEK 293T transformed human embryonic kidney), and two normal human cell lines (HEF human embryonic fibroblasts and NHA normal human astrocytes) were used for these experiments. Cytotoxicity was measured by incubating the cells with serial dilutions of PM I, PM II, PM III, TP I, TP II, or TP III samples followed by MTT assay after 48 h. The half-maximal inhibitory concentrations (IC50) were measured as the peptide concentration at which cell viability was reduced by 50% in comparison to untreated cells (Table 3).
(§2) The following tumor and transformed cell lines were used in this study: HL-60 (acute promyelocytic leukemia), HeLa (human cervix adenocarcinoma cells), SK-BR-3 (human breast adenocarcinoma cells), A549 (human lung carcinoma cells), HEK 293T (transformed human embryonic kidney cells), HEF (human embryonic fibroblasts), and NHA (normal human astrocytes) were used as normal cell lines. Tumor and transformed cell lines were obtained from the American Type Culture Collection (ATCC; www.atcc.org). Primary cells HEF (normal human embryonic fibroblasts derived from human embryonic stem cells) and NHA (normal human astrocytes derived from human fetal brain tissue) were obtained and cultured according to the corresponding protocol. Briefly, cells were cultured in DMEM/F12 (1:1) or RPMI-1640 medium containing 10% fetal bovine serum (Invitrogen, USA) at 37 °C in the atmosphere containing 5% CO2 and 95% air according to standard mammalian tissue culture protocols and using a sterile technique. All cell lines were tested by using the LookOut® Mycoplasma PCR Detection Kit (Sigma-Aldrich, St. Louis, MO, USA) according to the manufacturer’s protocol and found to be free of Mycoplasma infection.
(§3) The colorimetric 3-(4,5-dimethylthiazol-2-yl)-2,5-diphenyltetrazolium bromide (MTT) dye reduction assay was used to determine the cytotoxicity of the polyphemusins and tachyplesins. Cells (3 × 10^3–6 × 10^3 per well) were placed into 96-well plates in Dulbecco’s modified Eagle’s medium (DMEM/F12) supplemented with 10% fetal bovine serum (FBS). After incubation in the atmosphere containing 5% CO2 and 95% air at 37 °C overnight, the media were discarded, and polyphemusins or tachyplesins solutions were added to the cell cultures up to final concentrations of 2.5, 5, 10, 25, and 50 μM in a final volume of 0.1 mL DMEM/F12 with 10% FBS. HL-60 cells (4 × 10^4 in 50 μL) were added to two-time serial dilutions of polyphemusins solutions at a final concentration of 1.25, 2.5, 5, 10, 25, and 50 μM in 50 μL RPMI-1640 with 10% FBS. 48 hours later, 20 μL of MTT (5 mg/mL) was added into each well and the plates were incubated for 3 h at 37 °C. The plates with HL-60 cells were centrifuged for 10 min at 300 g. The media were discarded and 0.1 mL of dimethyl sulfoxide and isopropanol mixture at a ratio of 1:1 (v/v) was added to each well to dissolve the crystallized formazan. The absorbance at 570 nm was measured by a microplate reader (Eppendorf, Hamburg, Germany).

Data set [2] has as its system A549 (human lung carcinoma cells). Format: cell-based. To be noted: MTT after 48 h, DMEM/F12 with 10% FBS, mean ± SD of at least three independent experiments. On the procedure:
as §1, §2, §3

In data set [3] the test system is HEF (human embryonic fibroblasts). Format: cell-based. To be noted: HEF normal cells; MTT after 48 h, DMEM/F12 with 10% FBS; mean ± SD of at least three independent experiments. The protocol: as §1, §2, §3
The subject of data set [4] is HEK 293T (transformed human embryonic kidney cells). It counts as cell-based. To be noted: MTT after 48 h, DMEM/F12 with 10% FBS, mean ± SD of at least three independent experiments. The protocol:
as §1, §2, §3

For data set [5], the system named is HeLa (human cervix adenocarcinoma cells). It counts as cell-based. To be noted: MTT after 48 h, DMEM/F12 with 10% FBS, mean ± SD of at least three independent experiments. On the procedure:
as §1, §2, §3

For data set [6], the system named is NHA (normal human astrocytes). It counts as cell-based. To be noted: NHA normal cells; MTT after 48 h, DMEM/F12 with 10% FBS; mean ± SD of at least three independent experiments. On the procedure: as §1, §2, §3
Data set [7] has as its system SK-BR-3 (human breast adenocarcinoma cells). Format: cell-based. To be noted: MTT after 48 h, DMEM/F12 with 10% FBS, mean ± SD of at least three independent experiments. On the procedure: as §1, §2, §3
A short description of data set [8]: RP-HPLC retention time as measure of hydrophobicity. It counts as physicochemical. Conditions: semi-preparative RP-HPLC, C18 column, linear gradient 5 to 80% (v/v) acetonitrile in water with 0.1% TFA within 1 h; used as indicator of hydrophobicity. The source says: The PM III IC50 values were lower than those determined for PM I and PM II. We speculate that the higher cytotoxicity of PM III might be due to its higher hydrophobicity. In comparison to other tested peptides, the retention time of PM III measured during RP-HPLC indicated its higher hydrophobicity (Table 1). […] Increased hydrophobicity of these analogs caused higher cytotoxic effects. […] Cell membranes contain different phospholipids, which sustain the amphipathic features due to the formation of hydrophilic and hydrophobic domains in the membrane structure. Well-known differences between the composition of bacterial and mammalian cell membranes provide the evidence for selectivity of the peptides’ action. Bacterial membranes predominantly consist of phosphatidylserine, phosphatidylglycerol, and cardiolipin having a net negative charge. Tumor cell bilayers are also enriched in anionic molecules, such as phosphatidylserine, sialylated gangliosides, O-glycosylated mucins, and heparin sulfate. In contrast, zwitterionic phospholipids—phosphatidylcholine, phosphatidylethanolamine, and sphingomyelin—are abundant in the cytoplasmic membranes of non-cancer mammalian cells. Electrically neutral normal mammalian membranes prevent their recognition by positively charged antimicrobial peptides, and binding to these membranes is enabled by hydrophobic interactions. Thus, modulation of hydrophobicity of antimicrobial peptides, and also peptoid molecules, may be followed by non-specific interaction with erythrocytes as it was shown in previously published studies. […] Suboptimal high hydrophobic properties may not only result in increased toxicity to erythrocytes, but even in a reduction of antibacterial activity. Several protegrin-1 synthetic analogs with different hydrophobicities were characterized earlier. The analog with substitutions of valine by leucine that was more hydrophobic than naturally occurring protegrin-1 and the analog with substitutions of valine by fluorinated leucine had the most hydrophobic properties than other tested peptides. […] Therefore, half-hemolysis concentration and IC50 effective concentration were in different ranges.

Data set [9] relates to Gram-negative and Gram-positive bacteria. To be noted: natural and synthetic peptides; cited from earlier work. The protocol: Our experimental data for the obtained recombinant PM I are in line with those obtained earlier for synthetic PM I against Gram-negative and Gram-positive bacteria (with reported MICs not exceeding 1 μM).

Structures are written as SMILES. “And” between values parts separate entries of the source, which are not always exact repeats. Equal values may be shown once. Where a SMILES comes first, the peptide text is derived from it. Bridges are numbered along the chain shown (N, C = ends).

A word on the IC50: it is the concentration that inhibits the measured activity by half. Low readings indicate greater potency, high ones weaker potency.

Regarding `CC(C)[C@@H]1NC(=O)[C@H](CCCNC(=N)N)NC(=O)[C@H](Cc2ccccc2)NC(=O)[C@@H](NC(=O)[C@H](Cc2c[nH]c3ccccc23)NC(=O)[C@H](CCCNC(=N)N)NC(=O)[C@@H](N)CCCNC(=N)N)CSSC[C@@H](C(=O)N[C@@H](CCCNC(=N)N)C(=O)O)NC(=O)[C@H](CCCCN)NC(=O)[C@H](CCCNC(=N)N)NC(=O)[C@H](Cc2ccc(O)cc2)NC(=O)[C@@H]2CSSC[C@H](NC1=O)C(=O)N[C@@H](Cc1ccc(O)cc1)C(=O)N[C@@H](CCCNC(=N)N)C(=O)NCC(=O)N[C@@H](Cc1ccccc1)C(=O)N2` [PM I, polyphemusin I] (H-RRWCFRVCYRGFCYRKCR-OH; disulfide 4-17, 8-13 (inferred); N-terminus assumed), the IC50 in data set [1] is 7.2 ± 0.5 µM; in data set [2], 8.8 ± 1.3 µM; in data set [3], 8.3 ± 0.7 µM; in [4] it was 9.4 ± 1.5 µM; in data set [5], 12.5 ± 0.9 µM; in [6] it was 14.5 ± 1.6 µM. This molecule also had an IC50 in data set [7] of 16 ± 0.6 µM. The “RP-HPLC Retention Time” value in data set [8] worked out at 35.5 min. In addition, in data set [9], the MICs entry is reported as “exceeding 1 μM”.
On to `CC(C)[C@@H]1NC(=O)[C@H](CCCNC(=N)N)NC(=O)[C@H](Cc2ccccc2)NC(=O)[C@@H](NC(=O)[C@H](Cc2c[nH]c3ccccc23)NC(=O)[C@H](CCCNC(=N)N)NC(=O)[C@@H](N)CCCNC(=N)N)CSSC[C@@H](C(=O)N[C@@H](CCCNC(=N)N)C(=O)O)NC(=O)[C@H](CCCCN)NC(=O)[C@H](CCCNC(=N)N)NC(=O)[C@H](Cc2ccc(O)cc2)NC(=O)[C@@H]2CSSC[C@H](NC1=O)C(=O)N[C@@H](Cc1ccc(O)cc1)C(=O)N[C@@H](CCCCN)C(=O)NCC(=O)N[C@@H](Cc1ccccc1)C(=O)N2` [PM II, polyphemusin II] (H-RRWCFRVCYKGFCYRKCR-OH; disulfide 4-17, 8-13 (inferred); N-terminus assumed), for which the IC50 in data set [1] was 7.2 ± 0.5 µM; in [2] it was 10.8 ± 1.9 µM; in data set [3], 7 µM and 9.7 µM; in [4], 11.3 ± 1.6 µM; in [5] it was 16.4 ± 1.3 µM; in data set [6], 18.3 ± 1.4 µM. For the same molecule, the midpoint of inhibition in data set [7], the IC50, lay at 17.3 ± 0.6 µM. Further, in data set [8], the “RP-HPLC Retention Time” value is 35.4 min. Also, in data set [9], the MICs result is on record as “exceeding 1 μM”.
In the case of `CC[C@H](C)[C@@H]1NC(=O)CNC(=O)[C@H](CCCNC(=N)N)NC(=O)[C@H](Cc2ccc(O)cc2)NC(=O)[C@@H]2CSSC[C@H](NC1=O)C(=O)N[C@@H](Cc1ccc(O)cc1)C(=O)N[C@@H](CCCNC(=N)N)C(=O)N[C@@H](CCCNC(=N)N)C(=O)N[C@H](C(=O)N[C@@H](CCCNC(=N)N)C(=O)O)CSSC[C@H](NC(=O)[C@H](Cc1c[nH]c3ccccc13)NC(=O)[C@@H](N)CCCCN)C(=O)N[C@@H](Cc1ccccc1)C(=O)N[C@@H](CCCNC(=N)N)C(=O)N[C@@H](C(C)C)C(=O)N2` [TP I, tachyplesin I] (H-KWCFRVCYRGICYRRCR-OH; disulfide 3-16, 7-12 (inferred); N-terminus assumed), the IC50 in data set [1] was determined as 4.8 ± 0.3 µM; in data set [2], 26.5 ± 1.2 µM; in data set [3] it was 13 ± 1.5 µM; in [4], 23.5 ± 1.2 µM; in [5], 24.2 ± 1.7 µM; in [6], 24.7 ± 1.8 µM. The same molecule had an IC50 in data set [7] of 30.1 ± 1.9 µM. For the same molecule, the “RP-HPLC Retention Time” value in data set [8] turned out to be 35.5 min. In addition, the MICs result in data set [9] was “exceeding 1 μM”.
As to `CC[C@H](C)[C@@H]1NC(=O)CNC(=O)[C@H](CCCNC(=N)N)NC(=O)[C@H](Cc2ccc(O)cc2)NC(=O)[C@@H]2CSSC[C@H](NC1=O)C(=O)N[C@@H](Cc1ccc(O)cc1)C(=O)N[C@@H](CCCNC(=N)N)C(=O)N[C@@H](CCCCN)C(=O)N[C@H](C(=O)N[C@@H](CCCNC(=N)N)C(=O)O)CSSC[C@H](NC(=O)[C@H](Cc1c[nH]c3ccccc13)NC(=O)[C@@H](N)CCCNC(=N)N)C(=O)N[C@@H](Cc1ccccc1)C(=O)N[C@@H](CCCNC(=N)N)C(=O)N[C@@H](C(C)C)C(=O)N2` [TP II, tachyplesin II] (H-RWCFRVCYRGICYRKCR-OH; disulfide 3-16, 7-12 (inferred); N-terminus assumed), the IC50 in data set [1] is 5.6 ± 0.5 µM; in [2], 28.1 ± 1.7 µM; in [3] it was 17.7 ± 1.2 µM; in data set [4], 24.6 ± 1.7 µM; in data set [5], 24.4 ± 3 µM; in data set [6] it was 29.4 ± 1.7 µM. For the same molecule, inhibition in [7] was half-maximal at 34 ± 1.3 µM (IC50). For the same molecule, the “RP-HPLC Retention Time” value in [8] was found to be 35.9 min. Also, the MICs entry in [9] is given as “exceeding 1 μM”.
For `CC[C@H](C)[C@@H]1NC(=O)CNC(=O)[C@H](CCCNC(=N)N)NC(=O)[C@H](Cc2ccc(O)cc2)NC(=O)[C@@H]2CSSC[C@H](NC1=O)C(=O)N[C@@H](Cc1ccc(O)cc1)C(=O)N[C@@H](CCCNC(=N)N)C(=O)N[C@@H](CCCCN)C(=O)N[C@H](C(=O)N[C@@H](CCCNC(=N)N)C(=O)O)CSSC[C@H](NC(=O)[C@H](Cc1c[nH]c3ccccc13)NC(=O)[C@@H](N)CCCCN)C(=O)N[C@@H](Cc1ccccc1)C(=O)N[C@@H](CCCNC(=N)N)C(=O)N[C@@H](C(C)C)C(=O)N2` [TP III, tachyplesin III] (H-KWCFRVCYRGICYRKCR-OH; disulfide 3-16, 7-12 (inferred); N-terminus assumed), the IC50 in [1] was determined as 5 ± 0.4 µM; in [2], 15.3 ± 1 µM; in [3] it was 14.1 ± 1.2 µM; in [4], 19.7 ± 1.9 µM; in [5], 13.7 ± 1.3 µM; in [6], 21.3 ± 1.2 µM. Also, half-maximal inhibition in data set [7] (IC50) was put at 27.5 ± 0.8 µM. The “RP-HPLC Retention Time” value in data set [8] was found to be 35.5 min.

Source of the values: PMC6315362, “Cytotoxic Potential of the Novel Horseshoe Crab Peptide Polyphemusin III” (Marine Drugs, 2018).
